Bridge positions count the residues as written; N and C are the ends. Ends that are not written are not given here. Peptide text beside a SMILES is read from it. * marks the point of attachment. Biotin = O=C1N[C@H]2[C@H](CS[C@H]2CCCCC(=O)*)N1
Experiments:
[1] = molecular target: T1, EpCAM (Homo sapiens, UniProt P16422); test: Dissociation constant of EpCAM-binding peptide and EpCAM by fluorescence depolarization method; conditions: FITC-modified peptide; Kd estimated by curve fitting, Hill equation; N.B.: Not bound
T1 construct: with insertions myc and His tags at the C terminus of the extracellular domain; myc (C); made in house; host or cells: HEK-293T
T1 sequence (P16422 24-265 limits assumed): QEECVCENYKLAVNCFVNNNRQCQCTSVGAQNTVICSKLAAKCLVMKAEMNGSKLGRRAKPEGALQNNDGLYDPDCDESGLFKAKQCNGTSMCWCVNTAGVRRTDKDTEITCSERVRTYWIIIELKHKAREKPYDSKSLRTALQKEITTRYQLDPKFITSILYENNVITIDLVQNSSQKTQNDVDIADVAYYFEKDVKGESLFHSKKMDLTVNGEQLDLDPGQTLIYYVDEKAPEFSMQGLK
Experimental: The obtained EpCAM peptides were assayed for their strength of binding to EpCAM by the fluorescence depolarization method, which is a method for evaluating the interaction between molecules. Each fluorescently labeled EpCAM peptide and EpCAM are used to determine the strength of binding from the kinetics of depolarization by Brownian movement.
Each FITC-modified EpCAM peptide or control peptide was suspended at a concentration of approximately 100 μM in PBS. After centrifugation, the supernatant was collected and diluted 10-fold, and the absorbance was measured at 495 nm From the measurement value, the molar concentration of the peptide was determined using the formula of Beer-Lambert of the following expression 1: A=E×b×C [Expression 1]
EpCAM is diluted with PBS into several concentrations from 0 until reaching equilibrium (40 nM for the Ep133 peptide), and the FITC-modified peptide whose precise concentration has been measured by the aforementioned method is added to the dilutions thus prepared. The sample was left at a temperature for measurement for 30 minutes or longer and subjected to polarization measurement using a spectrofluorometer FP-6500 (JASCO Corp.) equipped with an automatic polarization measurement unit (JASCO Corp., APH-103). Kd was estimated by curve fitting according to the Hill equation.
The dissociation constants of the two types of peptides Ep133 (FIG. 2(A)) and Ep114 (FIG. 2(C)), which were obtained in the present invention and had the high ability to bind to EpCAM, were measured by the fluorescence depolarization method.
The dissociation constants of the EpCAM-binding peptide Ep301 (FIG. 2(D)) disclosed in Patent Literature 2 and Ep301 control (FIG. 2(E)), which was a control peptide derived from Ep301 by the substitution of cysteine at positions 5 and 10 by serine, and a sequence of EpCAM from residue 106 to 119 (FIG. 2(F)) having partial homology to EpCAM-binding peptides were measured similarly.

[2] = molecular target: T2, EpCAM-expressing cells HT-29 (Homo sapiens, UniProt P16422); test: Cell staining of HT-29 cells, confocal microscope; assay type: cell-based; conditions: HT-29, FITC-labeled peptide 0.4 μM, 37° C., 1 hour
T2 construct: EpCAM on HT-29 was stained at a concentration of 0.4 μM; endogenous in cells; host or cells: HT-29
T2 sequence (P16422 24-314): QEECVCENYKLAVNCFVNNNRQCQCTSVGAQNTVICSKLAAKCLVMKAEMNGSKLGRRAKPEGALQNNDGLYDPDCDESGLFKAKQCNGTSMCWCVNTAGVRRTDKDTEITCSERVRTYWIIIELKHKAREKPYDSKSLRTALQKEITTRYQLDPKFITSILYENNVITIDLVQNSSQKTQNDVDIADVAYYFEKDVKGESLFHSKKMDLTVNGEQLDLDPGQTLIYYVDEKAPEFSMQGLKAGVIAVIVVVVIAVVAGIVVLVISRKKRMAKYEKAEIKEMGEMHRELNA
Experimental: The EpCAM-expressing cells HT-29 or the non-expressing cells Hs578T were cultured in a medium containing 10% fetal calf serum in a Petri dish for 48 hours and then incubated at 37° C. for 1 hour with the FITC-labeled Ep114 peptide or a L3A control labeled peptide at a final concentration of 0.4 μM Immediately thereafter, the cells were observed under a confocal microscope.

[3] = molecular target: T1, EpCAM; test: ELISA with immobilized biotinylated peptide and purified EpCAM; assay type: binding; conditions: purified EpCAM 0, 10 or 100 ng
Experimental: was immobilized onto an ELISA plate via streptavidin, and purified EpCAM was added thereto in an amount of 0, 10, or 100 ng and reacted. After washing, bound EpCAM was detected using the anti-EpCAM antibody. A biotin-modified peptide PE194 (Ac-[…](biotin)-NH2) (SEQ ID NO: 13) of the L3A variant (non-EpCAM-binding variant) was used as a control.

[4] = molecular target: T3, EpCAM on HT-29 (Homo sapiens, UniProt P16422); test: Staining of spheroid-cultured HT-29 cells with FITC-modified peptide; assay type: cell-based; design: endogenous in cells; host or cells: HT-29; conditions: FITC-labeled peptide, 0.4 μM
T3 sequence (P16422 24-314): T2 sequence (P16422 24-314)
Experimental: The HT-29 cells as EpCAM-expressing cells were cultured by spheroid culture method as follows: 4×10^5 cells are suspended in 3 ml of D-MEM/F-12 medium (Dulbecco's Modified n Eagle Medium:Nutrient Mixture 12, 1:1 mixture) (Gibco/Life Technologies Inc.) supplemented with 20 ng/ml human EGF (Miltenyi Biotec K.K.), 20 ng/ml human EGF-2 (Miltenyi Biotec K.K.), B-27 (Gibco/Life Technologies Inc.), penicillin, and streptomycin and inoculated to EZ-Sphere®, a Petri dish of 3.5 cm in diameter coated with MPC polymer. After static culture for 72 hours, the cells were collected while the medium was suspended by pipetting. The cells were stained with the FITC-modified peptide and observed under a fluorescence microscope. […]

[5] = molecular target: T1, EpCAM; test: ELISA with ferritin-fused Ep114 peptide; assay type: binding; conditions: either partner immobilized
Experimental: Ep114 was fused to the N terminus of Fer8 (Non Patent Literature 6), a ferritin derivative, and used in analysis.
1 μg of the ferritin-fused Ep114 peptide (Ep114/fer8) or ferritin (fer8) was immobilized onto an ELISA plate. Then, purified EpCAM was added thereto at different concentrations. Bound EpCAM was detected using the anti-EpCAM antibody (FIG. 8A).
Next, 0.2 μg of purified EpCAM was immobilized onto an ELISA plate. Then, the ferritin-fused Ep114 peptide (Ep114/fer8) or ferritin (fer8) was added thereto at different concentrations. Bound Ep114 peptide (Ep114/fer8) or ferritin (fer8) was detected using an anti-ferritin antibody (FIG. 8B).

[6] = system: anti-Ep114 antibody; test: Immunoprecipitation with biotinylated Ep114 on streptavidin beads: binding to anti-Ep114 antibody; design: species or system rabbit; conditions: peptide on streptavidin-magnetic beads, Western blot
Experimental: 250 μg of streptavidin-magnetic beads (Dynabeads® M-280 streptavidin, VERITAS Corp.) in TBS containing 2% BSA was added to 20 μg of the biotinylated Ep114 peptide and shaken at room temperature for 30 minutes, followed by washing with TBS. Beads reacted without the peptide were used as a control. The anti-Ep114 antibody was added to the beads in TBST and reacted at room temperature for 1 hour. After washing with TBS, the beads were collected. The collected beads were heated at 95° C. for 5 minutes in a SDS sample buffer. After Western-blotting, the anti-Ep114 antibody was detected using HRP-labeled anti-rabbit antibodies.
A schematic diagram of the reaction with the magnetic beads is shown in the left panel of FIG. 5A, and the Western blot results are shown on the right panel thereof.

[7] = molecular target: T4, 293T cells transfected with full-length EpCAM gene (Homo sapiens, UniProt P16422); test: Staining of 293T cells forced to express EpCAM with FITC-modified peptide; assay type: cell-based
T4 construct: an expression plasmid in which the full-length EpCAM gene incorporated; expressed in transfected cells; host or cells: 293T
T4 sequence (P16422 24-314): T2 sequence (P16422 24-314)
Source text: 293T cells expressing no endogenous EpCAM were transfected with pkk196, an expression plasmid in which the full-length EpCAM gene incorporated, and forced to express EpCAM, followed by staining using FITC-modified Ep114.

[8] = molecular target: T5, EpCAM (Homo sapiens, UniProt P16422); test: Binding activity against EpCAM after oxidation treatment (S—S bond formation, HPLC fractionation)
T5 sequence (P16422 24-314): T2 sequence (P16422 24-314)

In the case of KAKQCNGTSMCWPK [EpCAM partial sequence], the “Kd (nM)” value [1] is reported as “N.B”.

With “L3A variant: FITC-labeled Ep114 variant peptide with leucine at 3rd residue substituted by alanine, staining control (KHAQCVRNICWS; cysteine pairing not given here; also: FITC-labeled, position not given here) [reference compound]” the “staining of cell membrane portions” value [2] was “no staining was observed”.

With “EHLHSLGSLSWP [Ep133 control, Ep133 with cysteine at positions 5 and 10 substituted by serine]” the “Kd (nM)” value [1] was “N.B”.

In the case of “Ac-KHAQCVRNICWSPPPPPPKK(Biotin)-NH2 (cysteine pairing not given here) [PE194, reference compound]”, the ELISA signal [3] is reported as “increase in signal intensity was rarely observed”.

With “133control-FITC: FITC-labeled Ep133 control peptide in which cysteine at positions 5 and 10 is substituted by serine (EHLHSLGSLSWP; also: FITC-labeled, position not given here) [reference compound]” the “staining of EpCAM on HT-29 spheroids” value [4] was “no staining is observed”.

For “Ac-KHLQCVRNICWSPPPPPPKK(Biotin)-NH2 (cysteine pairing not given here) [PE183]”, the ELISA signal [3] was “enhancement in ELISA signal proportional to the amount of EpCAM added”.

“KSLQSINNLSWP [Ep301 control, Ep301 with cysteine at positions 5 and 10 substituted by serine]” was tested, and the “Kd (nM)” value [1] was “N.B”.

“114control-FITC: FITC-labeled Ep114 control peptide in which cysteine at positions 5 and 10 is substituted by serine (KHLQSVRNISWS; also: FITC-labeled, position not given here) [reference compound]” was tested, and the “staining of EpCAM on HT-29 spheroids” value [4] was “no staining is observed”.

For “ferritin-fused Ep114 peptide: Ep114 fused to the N terminus of Fer8, a ferritin derivative (KHLQCVRNICWS; not fully specified (C-terminus, bridges); cysteine pairing not given here; also: fused to ferritin Fer8 (recombinant carrier), not in the letters)”, the “detection of EpCAM” value [5] was “capable of sensitively detecting EpCAM”.

In the case of “133-FITC: FITC-labeled Ep133 peptide (EHLHCLGSLCWP; cysteine pairing not given here; also: FITC-labeled, position not given here) [Peptide 133-FITC]”, the “staining of EpCAM on HT-29 spheroids” value [4] is reported as “stained”.

For “biotinylated Ep114: Ep114 peptide biotinylated at the stage of its synthesis, without linker (KHLQCVRNICWS; cysteine pairing not given here; also: biotin label, position not given here)”, the “binding to anti-Ep114 antibody” value [6] was “bound with the anti-Ep114 antibody”.

In the case of “Ep114Cys: FITC-modified Ep114 peptide that did not undergo oxidation treatment (KHLQCVRNICWS; also: FITC-modified, position not given here, no oxidation treatment, cysteines not deliberately cross-linked)”, the “ability to stain EpCAM” value ([7]; FITC-modified peptide with or without oxidation treatment) is reported as “equivalent ability to stain EpCAM”.

For “114-FITC: FITC-labeled Ep114 peptide (KHLQCVRNICWS; cysteine pairing not given here; also: FITC-labeled, position not given here) [Peptide 114-FITC]”, the “staining of EpCAM on HT-29 spheroids” value [4] was “stained”.

In the case of CC(C)C[C@@H]1NC(=O)[C@@H](NC(=O)[C@H](Cc2c[nH]cn2)NC(=O)[C@H](CC(C)C)NC(=O)[C@H](Cc2c[nH]cn2)NC(=O)[C@@H](N)CCC(=O)O)CSSC[C@@H](C(=O)N[C@@H](Cc2c[nH]c3ccccc23)C(=O)N2CCC[C@H]2C(=O)O)NC(=O)[C@H](CC(C)C)NC(=O)[C@H](CO)NC(=O)CNC1=O [Ep133, EHLHCLGSLCWP] (H-EHLHCLGSLCWP-OH; disulfide 5-10; N-terminus and C-terminus assumed), the “ability to bind to EpCAM without active oxidation treatment” value ([7]; data not shown) is reported as “did not show the ability to bind to EpCAM” and the “binding activity against EpCAM” value [8] is reported as “only a fraction of the peptides having the S—S bond showed binding activity against EpCAM”.

— US9815866B2, “Peptides that bind to epithelial cell adhesion molecule” (JAPANESE FOUNDATION FOR CANCER RESEARCH, priority 2012, dated 2017)
